Measured values: ChEMBL document CHEMBL1141779, “Sesterterpenoids, terretonins A-D, and an alkaloid, asterrelenin, from Aspergillus terreus” (J Nat Prod, 2005)

Experiments:
[1] = Cytotoxicity against human Bre04 cells; format: functional
Maltase-glucoamylase = Maltase-glucoamylase (Homo sapiens, UniProt O43451); assay: Inhibition of maltase
[2] = biological target: Sucrase-isomaltase, intestinal (Homo sapiens, UniProt P14410); assay: Inhibition of sucrase
[3] = Cytotoxicity against human Lu04 cells; format: functional
[4] = Inhibition of alpha-amylase
[5] = Cytotoxicity against human N04 cells; format: functional

Maltase-glucoamylase, sequence (O43451 whole entry): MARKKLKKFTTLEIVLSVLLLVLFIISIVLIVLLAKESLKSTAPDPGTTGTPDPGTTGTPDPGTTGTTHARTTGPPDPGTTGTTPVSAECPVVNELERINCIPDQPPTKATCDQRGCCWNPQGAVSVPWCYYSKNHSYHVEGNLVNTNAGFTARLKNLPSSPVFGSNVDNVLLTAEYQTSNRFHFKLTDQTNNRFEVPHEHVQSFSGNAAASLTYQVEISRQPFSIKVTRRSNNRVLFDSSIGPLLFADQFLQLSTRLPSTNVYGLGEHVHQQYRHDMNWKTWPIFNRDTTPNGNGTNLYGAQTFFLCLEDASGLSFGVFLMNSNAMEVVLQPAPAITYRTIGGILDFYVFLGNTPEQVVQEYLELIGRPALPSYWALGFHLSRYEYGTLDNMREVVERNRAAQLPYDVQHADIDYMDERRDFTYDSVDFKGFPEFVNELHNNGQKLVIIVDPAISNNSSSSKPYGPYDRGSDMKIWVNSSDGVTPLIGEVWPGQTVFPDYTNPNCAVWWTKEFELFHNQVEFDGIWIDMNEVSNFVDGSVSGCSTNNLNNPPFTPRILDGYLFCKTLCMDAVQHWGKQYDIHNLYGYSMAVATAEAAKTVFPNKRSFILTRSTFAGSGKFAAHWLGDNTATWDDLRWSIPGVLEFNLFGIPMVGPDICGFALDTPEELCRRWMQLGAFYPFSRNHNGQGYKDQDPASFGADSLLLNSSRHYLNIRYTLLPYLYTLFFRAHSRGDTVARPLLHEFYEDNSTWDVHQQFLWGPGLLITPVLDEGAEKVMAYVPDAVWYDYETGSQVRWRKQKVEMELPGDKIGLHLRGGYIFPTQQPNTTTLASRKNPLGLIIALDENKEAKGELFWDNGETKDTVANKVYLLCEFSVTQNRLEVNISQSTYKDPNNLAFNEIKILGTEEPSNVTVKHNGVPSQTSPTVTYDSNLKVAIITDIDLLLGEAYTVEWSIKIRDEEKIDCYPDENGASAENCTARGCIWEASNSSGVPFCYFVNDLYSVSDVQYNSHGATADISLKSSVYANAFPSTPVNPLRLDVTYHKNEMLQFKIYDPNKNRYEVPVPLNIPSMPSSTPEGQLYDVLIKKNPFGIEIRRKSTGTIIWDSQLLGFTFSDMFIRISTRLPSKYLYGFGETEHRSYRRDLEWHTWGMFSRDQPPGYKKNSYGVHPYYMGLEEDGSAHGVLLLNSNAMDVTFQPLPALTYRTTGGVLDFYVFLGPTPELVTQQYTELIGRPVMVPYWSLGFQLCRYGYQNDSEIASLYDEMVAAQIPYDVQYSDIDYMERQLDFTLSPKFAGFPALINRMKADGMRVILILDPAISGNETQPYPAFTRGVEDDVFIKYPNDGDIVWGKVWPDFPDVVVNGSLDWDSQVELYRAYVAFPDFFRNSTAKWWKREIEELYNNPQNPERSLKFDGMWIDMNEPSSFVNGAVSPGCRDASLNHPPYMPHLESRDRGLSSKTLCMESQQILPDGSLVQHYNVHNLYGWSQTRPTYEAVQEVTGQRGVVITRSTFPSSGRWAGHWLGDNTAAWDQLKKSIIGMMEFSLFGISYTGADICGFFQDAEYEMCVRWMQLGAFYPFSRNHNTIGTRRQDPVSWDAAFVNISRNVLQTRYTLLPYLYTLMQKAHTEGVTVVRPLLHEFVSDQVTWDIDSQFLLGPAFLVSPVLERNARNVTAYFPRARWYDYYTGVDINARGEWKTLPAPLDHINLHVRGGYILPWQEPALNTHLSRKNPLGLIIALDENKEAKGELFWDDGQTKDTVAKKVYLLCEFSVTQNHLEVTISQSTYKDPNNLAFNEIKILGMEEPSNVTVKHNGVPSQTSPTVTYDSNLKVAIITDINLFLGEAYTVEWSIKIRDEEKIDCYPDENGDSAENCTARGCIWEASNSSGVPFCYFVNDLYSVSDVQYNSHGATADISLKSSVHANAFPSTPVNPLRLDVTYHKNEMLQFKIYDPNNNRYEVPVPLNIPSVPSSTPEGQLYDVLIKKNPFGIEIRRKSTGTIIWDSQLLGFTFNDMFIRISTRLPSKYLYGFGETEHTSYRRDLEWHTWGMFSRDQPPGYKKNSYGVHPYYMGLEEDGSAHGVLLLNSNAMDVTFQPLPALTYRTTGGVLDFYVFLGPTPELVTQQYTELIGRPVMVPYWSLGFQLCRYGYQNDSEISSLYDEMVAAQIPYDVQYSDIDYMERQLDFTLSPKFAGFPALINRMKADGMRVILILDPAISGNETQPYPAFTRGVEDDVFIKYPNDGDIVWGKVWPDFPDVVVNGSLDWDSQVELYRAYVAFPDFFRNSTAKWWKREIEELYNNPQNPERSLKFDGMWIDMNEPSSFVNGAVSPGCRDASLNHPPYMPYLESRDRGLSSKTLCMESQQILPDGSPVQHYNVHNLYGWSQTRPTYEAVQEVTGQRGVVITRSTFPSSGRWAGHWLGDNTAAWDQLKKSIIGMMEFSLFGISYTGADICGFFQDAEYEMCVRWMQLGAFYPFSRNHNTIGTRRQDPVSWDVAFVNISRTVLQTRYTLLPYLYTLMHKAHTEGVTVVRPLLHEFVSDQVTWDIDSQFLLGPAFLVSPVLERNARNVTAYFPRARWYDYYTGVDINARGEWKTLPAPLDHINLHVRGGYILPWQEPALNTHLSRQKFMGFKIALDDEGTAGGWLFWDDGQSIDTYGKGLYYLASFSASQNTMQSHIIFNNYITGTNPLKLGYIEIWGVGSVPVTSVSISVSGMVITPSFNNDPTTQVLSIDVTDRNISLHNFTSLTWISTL
Sucrase-isomaltase, intestinal, sequence (P14410 2-1007 limits assumed): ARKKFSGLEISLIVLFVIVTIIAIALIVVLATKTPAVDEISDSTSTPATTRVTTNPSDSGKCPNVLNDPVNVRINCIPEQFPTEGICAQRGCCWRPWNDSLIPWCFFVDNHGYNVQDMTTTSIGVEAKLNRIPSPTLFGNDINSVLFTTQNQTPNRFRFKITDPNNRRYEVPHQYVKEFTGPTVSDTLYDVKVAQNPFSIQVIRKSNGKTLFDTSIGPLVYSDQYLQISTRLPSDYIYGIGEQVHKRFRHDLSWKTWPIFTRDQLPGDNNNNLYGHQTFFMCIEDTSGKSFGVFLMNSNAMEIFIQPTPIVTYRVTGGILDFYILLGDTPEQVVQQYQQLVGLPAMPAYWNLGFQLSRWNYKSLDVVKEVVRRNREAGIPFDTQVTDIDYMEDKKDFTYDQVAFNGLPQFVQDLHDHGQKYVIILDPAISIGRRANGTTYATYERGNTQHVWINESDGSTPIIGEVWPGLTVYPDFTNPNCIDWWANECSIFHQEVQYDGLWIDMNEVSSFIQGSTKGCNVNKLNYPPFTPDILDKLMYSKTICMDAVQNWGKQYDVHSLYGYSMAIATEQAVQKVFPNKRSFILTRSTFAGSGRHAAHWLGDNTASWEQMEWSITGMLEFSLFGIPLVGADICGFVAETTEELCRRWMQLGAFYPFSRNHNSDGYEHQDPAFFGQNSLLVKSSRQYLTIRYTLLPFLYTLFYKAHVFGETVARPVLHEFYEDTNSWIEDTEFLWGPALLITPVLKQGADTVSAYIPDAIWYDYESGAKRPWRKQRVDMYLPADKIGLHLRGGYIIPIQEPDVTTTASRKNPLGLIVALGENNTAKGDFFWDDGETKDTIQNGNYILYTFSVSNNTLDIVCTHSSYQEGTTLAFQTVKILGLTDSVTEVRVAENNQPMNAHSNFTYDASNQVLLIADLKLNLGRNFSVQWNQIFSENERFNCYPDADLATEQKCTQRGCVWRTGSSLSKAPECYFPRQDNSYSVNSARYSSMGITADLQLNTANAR
Sucrase-isomaltase, intestinal, sequence (P14410 1008-1827 limits assumed): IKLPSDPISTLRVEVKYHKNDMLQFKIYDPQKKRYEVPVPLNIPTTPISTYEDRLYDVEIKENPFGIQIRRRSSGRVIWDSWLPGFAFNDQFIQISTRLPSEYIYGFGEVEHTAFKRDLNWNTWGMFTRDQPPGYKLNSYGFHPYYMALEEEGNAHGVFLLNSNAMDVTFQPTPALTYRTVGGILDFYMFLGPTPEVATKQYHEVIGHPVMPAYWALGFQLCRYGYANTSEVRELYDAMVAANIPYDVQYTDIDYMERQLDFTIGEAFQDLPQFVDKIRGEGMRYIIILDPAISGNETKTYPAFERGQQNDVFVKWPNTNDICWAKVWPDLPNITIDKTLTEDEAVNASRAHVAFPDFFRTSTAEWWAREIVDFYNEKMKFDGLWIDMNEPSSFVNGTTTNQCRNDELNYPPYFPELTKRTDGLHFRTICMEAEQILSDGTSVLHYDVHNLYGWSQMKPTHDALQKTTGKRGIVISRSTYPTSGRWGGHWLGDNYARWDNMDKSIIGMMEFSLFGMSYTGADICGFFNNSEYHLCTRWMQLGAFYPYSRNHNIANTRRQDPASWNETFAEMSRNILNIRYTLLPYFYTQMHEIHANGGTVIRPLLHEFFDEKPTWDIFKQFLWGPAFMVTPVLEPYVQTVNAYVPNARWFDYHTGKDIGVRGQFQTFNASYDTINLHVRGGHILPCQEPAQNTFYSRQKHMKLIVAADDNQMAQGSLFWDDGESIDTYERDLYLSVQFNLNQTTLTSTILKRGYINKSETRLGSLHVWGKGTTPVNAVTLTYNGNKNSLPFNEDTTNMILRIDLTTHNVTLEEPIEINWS

SMILES	GI50 [1]	IC50 (Maltase-glucoamylase)	IC50 [2]	GI50 [3]	IC50 [4]	GI50 [5]
COc1cc(-c2cc3c(c(=O)o2)C[C@]2(O)[C@@]4(C)C(=O)C=CC(C)(C)[C@]4(O)CC[C@@]2(C)O3)cc2c1OCO2 [TERRITREM A]	> 100 µg/mL	> 196 µM	> 196 µM	> 100 µg/mL	> 100 µg/mL	> 100 µg/mL
C=C1C[C@H]2[C@@](C)(C(=O)C(O)=C3C(C)(C)C(=O)CC[C@@]32C)[C@@H]2C(=O)O[C@@](C)(C(=O)OC)C(=O)[C@@]12C [TERRETONIN A]	> 100 µg/mL	> 212 µM	> 212 µM	> 100 µg/mL	> 100 µg/mL	> 100 µg/mL
C=C1C[C@]2(O)[C@@]3(C)CCC(=O)C(C)(C)C3=C(O)C(=O)[C@@]2(C)[C@@H]2C(=O)O[C@@](C)(C(=O)OC)C(=O)[C@@]12C [TERRETONIN]	> 100 µg/mL	> 205 µM	> 205 µM	> 100 µg/mL	> 100 µg/mL	> 100 µg/mL
